Reference: article PMC5540273, “Progress towards a public chemogenomic set for protein kinases and a call for contributions” (PLoS ONE, 2017)

Target: T1, ACVR1 (Homo sapiens, UniProt Q04771)
T1 sequence (Q04771 21-509): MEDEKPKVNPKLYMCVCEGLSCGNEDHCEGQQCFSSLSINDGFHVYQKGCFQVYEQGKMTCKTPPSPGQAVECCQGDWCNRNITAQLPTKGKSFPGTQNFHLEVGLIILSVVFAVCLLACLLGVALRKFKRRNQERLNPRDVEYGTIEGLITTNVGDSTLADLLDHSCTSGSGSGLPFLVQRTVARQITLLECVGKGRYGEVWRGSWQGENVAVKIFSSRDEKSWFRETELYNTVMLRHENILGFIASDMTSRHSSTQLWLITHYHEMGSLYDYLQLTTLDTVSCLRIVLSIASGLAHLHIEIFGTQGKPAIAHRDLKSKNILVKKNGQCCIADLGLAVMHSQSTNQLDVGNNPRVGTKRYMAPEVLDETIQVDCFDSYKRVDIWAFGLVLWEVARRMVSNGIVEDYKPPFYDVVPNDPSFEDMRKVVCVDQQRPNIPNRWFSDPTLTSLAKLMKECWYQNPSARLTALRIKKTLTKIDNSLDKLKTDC
Assay: KINOMEscan competition binding
Details: read-out: %Inh ACVR1

SMILES	inhibition at 1 µM [%]
O=c1cc(N2CCOCC2)nc2n(Cc3cccc(Cl)c3Cl)c(C3CC3)nn12 [UNC10225469A]	0
Cn1cc(-c2cnc(N)c3c(-c4ccc5c(c4)CCN5C(=O)Cc4ccccc4)csc23)cn1 [UNC10225012A]	7
CS(=O)(=O)Cc1ccc(Nc2nccc(-c3c(-c4cccc(NC(=O)C5CCCCC5)c4)nn4ncccc34)n2)cc1 [UNC10225159A]	18
COc1cccc(OC)c1C(=O)Nc1cccc(-c2nn3ccccc3c2-c2ccnc(Nc3cccc(F)c3)n2)c1 [UNC10225310A]	17
Cc1ccc(NC(=O)Nc2cccc(C(F)(F)F)c2)cc1 [UNC10225187A]	10

Target: GSK3A (Homo sapiens, UniProt P49840)
Assay: KINOMEscan competition binding
Details: read-out: %Inh GSK3A

Chain of GSK3A (P49840 whole entry): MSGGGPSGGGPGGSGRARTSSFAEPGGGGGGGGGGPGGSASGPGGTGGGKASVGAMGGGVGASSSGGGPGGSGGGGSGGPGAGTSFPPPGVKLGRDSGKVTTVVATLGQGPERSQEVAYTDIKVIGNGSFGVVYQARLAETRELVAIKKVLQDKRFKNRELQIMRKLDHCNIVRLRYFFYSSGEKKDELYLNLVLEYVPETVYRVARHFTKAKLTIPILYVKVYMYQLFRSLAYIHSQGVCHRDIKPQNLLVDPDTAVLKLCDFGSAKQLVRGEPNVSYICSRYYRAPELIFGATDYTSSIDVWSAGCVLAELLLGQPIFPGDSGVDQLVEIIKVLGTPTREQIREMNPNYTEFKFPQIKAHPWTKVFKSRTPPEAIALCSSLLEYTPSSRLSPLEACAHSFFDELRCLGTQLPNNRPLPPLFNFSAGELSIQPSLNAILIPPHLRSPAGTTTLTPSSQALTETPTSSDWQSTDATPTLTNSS

SMILES	inhibition at 1 µM [%]
O=c1cc(N2CCOCC2)nc2n(Cc3cccc(Cl)c3Cl)c(C3CC3)nn12 [UNC10225469A]	4
Cn1cc(-c2cnc(N)c3c(-c4ccc5c(c4)CCN5C(=O)Cc4ccccc4)csc23)cn1 [UNC10225012A]	5
CS(=O)(=O)Cc1ccc(Nc2nccc(-c3c(-c4cccc(NC(=O)C5CCCCC5)c4)nn4ncccc34)n2)cc1 [UNC10225159A]	0
COc1cccc(OC)c1C(=O)Nc1cccc(-c2nn3ccccc3c2-c2ccnc(Nc3cccc(F)c3)n2)c1 [UNC10225310A]	24
Cc1ccc(NC(=O)Nc2cccc(C(F)(F)F)c2)cc1 [UNC10225187A]	0

Target: CDK4 (Homo sapiens, UniProt P11802)
Assay: KINOMEscan competition binding
Details: read-out: %Inh CDK4

Chain of CDK4 (P11802 whole entry): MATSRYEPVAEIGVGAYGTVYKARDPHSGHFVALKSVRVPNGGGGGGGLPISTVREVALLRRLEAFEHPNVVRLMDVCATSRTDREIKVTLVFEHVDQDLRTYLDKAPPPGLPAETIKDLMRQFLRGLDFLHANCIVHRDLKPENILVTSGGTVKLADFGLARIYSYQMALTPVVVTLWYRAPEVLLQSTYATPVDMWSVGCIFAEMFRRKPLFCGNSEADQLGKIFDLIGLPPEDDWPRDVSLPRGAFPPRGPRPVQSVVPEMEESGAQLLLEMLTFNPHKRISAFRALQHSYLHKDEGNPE

SMILES	inhibition at 1 µM [%]
O=c1cc(N2CCOCC2)nc2n(Cc3cccc(Cl)c3Cl)c(C3CC3)nn12 [UNC10225469A]	0
Cn1cc(-c2cnc(N)c3c(-c4ccc5c(c4)CCN5C(=O)Cc4ccccc4)csc23)cn1 [UNC10225012A]	0
CS(=O)(=O)Cc1ccc(Nc2nccc(-c3c(-c4cccc(NC(=O)C5CCCCC5)c4)nn4ncccc34)n2)cc1 [UNC10225159A]	18
COc1cccc(OC)c1C(=O)Nc1cccc(-c2nn3ccccc3c2-c2ccnc(Nc3cccc(F)c3)n2)c1 [UNC10225310A]	0
Cc1ccc(NC(=O)Nc2cccc(C(F)(F)F)c2)cc1 [UNC10225187A]	0

Target: CDC2L5 (Homo sapiens, UniProt Q14004)
Assay: KINOMEscan competition binding
Details: read-out: %Inh CDC2L5

SMILES	inhibition at 1 µM [%]
O=c1cc(N2CCOCC2)nc2n(Cc3cccc(Cl)c3Cl)c(C3CC3)nn12 [UNC10225469A]	0
Cn1cc(-c2cnc(N)c3c(-c4ccc5c(c4)CCN5C(=O)Cc4ccccc4)csc23)cn1 [UNC10225012A]	0
CS(=O)(=O)Cc1ccc(Nc2nccc(-c3c(-c4cccc(NC(=O)C5CCCCC5)c4)nn4ncccc34)n2)cc1 [UNC10225159A]	30
COc1cccc(OC)c1C(=O)Nc1cccc(-c2nn3ccccc3c2-c2ccnc(Nc3cccc(F)c3)n2)c1 [UNC10225310A]	1
Cc1ccc(NC(=O)Nc2cccc(C(F)(F)F)c2)cc1 [UNC10225187A]	0

Target: ACVR2A (Homo sapiens, UniProt P27037)
Assay: KINOMEscan competition binding
Details: read-out: %Inh ACVR2A

Chain of ACVR2A (P27037 20-513): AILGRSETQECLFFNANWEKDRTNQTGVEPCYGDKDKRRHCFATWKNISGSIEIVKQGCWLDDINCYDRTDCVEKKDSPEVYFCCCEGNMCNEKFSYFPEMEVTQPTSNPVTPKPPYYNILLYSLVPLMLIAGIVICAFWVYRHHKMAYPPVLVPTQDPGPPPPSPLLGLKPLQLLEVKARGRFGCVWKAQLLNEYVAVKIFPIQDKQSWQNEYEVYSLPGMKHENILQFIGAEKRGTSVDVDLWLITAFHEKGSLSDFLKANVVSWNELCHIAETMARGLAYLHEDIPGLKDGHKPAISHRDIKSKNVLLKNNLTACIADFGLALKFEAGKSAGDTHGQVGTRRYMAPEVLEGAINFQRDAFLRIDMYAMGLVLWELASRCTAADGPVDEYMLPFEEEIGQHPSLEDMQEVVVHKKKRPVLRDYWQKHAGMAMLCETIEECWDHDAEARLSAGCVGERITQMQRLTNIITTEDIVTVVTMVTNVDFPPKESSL

SMILES	inhibition at 1 µM [%]
O=c1cc(N2CCOCC2)nc2n(Cc3cccc(Cl)c3Cl)c(C3CC3)nn12 [UNC10225469A]	0
Cn1cc(-c2cnc(N)c3c(-c4ccc5c(c4)CCN5C(=O)Cc4ccccc4)csc23)cn1 [UNC10225012A]	0
CS(=O)(=O)Cc1ccc(Nc2nccc(-c3c(-c4cccc(NC(=O)C5CCCCC5)c4)nn4ncccc34)n2)cc1 [UNC10225159A]	0
COc1cccc(OC)c1C(=O)Nc1cccc(-c2nn3ccccc3c2-c2ccnc(Nc3cccc(F)c3)n2)c1 [UNC10225310A]	7
Cc1ccc(NC(=O)Nc2cccc(C(F)(F)F)c2)cc1 [UNC10225187A]	2

Target: T2, EPHB3 (Homo sapiens, UniProt P54753)
T2 sequence (P54753 34-998): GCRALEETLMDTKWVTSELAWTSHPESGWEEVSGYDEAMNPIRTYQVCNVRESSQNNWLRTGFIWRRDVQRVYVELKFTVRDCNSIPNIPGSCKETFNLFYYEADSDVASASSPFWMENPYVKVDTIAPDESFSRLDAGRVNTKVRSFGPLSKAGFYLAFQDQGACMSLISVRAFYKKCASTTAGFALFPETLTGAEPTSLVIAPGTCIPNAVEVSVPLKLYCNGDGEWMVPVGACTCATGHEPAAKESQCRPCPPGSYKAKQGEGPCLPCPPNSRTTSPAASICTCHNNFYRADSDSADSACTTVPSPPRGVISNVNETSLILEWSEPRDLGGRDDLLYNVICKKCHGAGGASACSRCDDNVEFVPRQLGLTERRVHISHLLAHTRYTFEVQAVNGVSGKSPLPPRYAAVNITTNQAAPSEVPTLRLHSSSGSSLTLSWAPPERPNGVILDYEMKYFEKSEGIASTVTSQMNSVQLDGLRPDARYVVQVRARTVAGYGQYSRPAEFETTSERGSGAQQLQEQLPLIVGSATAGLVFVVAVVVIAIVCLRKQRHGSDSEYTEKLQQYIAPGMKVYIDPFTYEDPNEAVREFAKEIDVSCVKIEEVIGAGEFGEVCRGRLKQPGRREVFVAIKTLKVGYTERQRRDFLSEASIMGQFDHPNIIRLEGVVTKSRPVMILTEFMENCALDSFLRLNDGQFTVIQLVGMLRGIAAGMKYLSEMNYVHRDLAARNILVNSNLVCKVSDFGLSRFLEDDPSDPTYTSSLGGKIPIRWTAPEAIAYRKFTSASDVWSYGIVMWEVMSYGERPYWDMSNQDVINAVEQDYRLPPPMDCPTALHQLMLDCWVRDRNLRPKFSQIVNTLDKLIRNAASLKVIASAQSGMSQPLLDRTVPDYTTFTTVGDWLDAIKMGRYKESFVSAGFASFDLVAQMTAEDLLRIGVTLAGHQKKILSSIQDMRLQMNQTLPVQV
Assay: KINOMEscan competition binding
Details: read-out: %Inh EPHB3

SMILES	inhibition at 1 µM [%]
O=c1cc(N2CCOCC2)nc2n(Cc3cccc(Cl)c3Cl)c(C3CC3)nn12 [UNC10225469A]	7
Cn1cc(-c2cnc(N)c3c(-c4ccc5c(c4)CCN5C(=O)Cc4ccccc4)csc23)cn1 [UNC10225012A]	4
CS(=O)(=O)Cc1ccc(Nc2nccc(-c3c(-c4cccc(NC(=O)C5CCCCC5)c4)nn4ncccc34)n2)cc1 [UNC10225159A]	5
COc1cccc(OC)c1C(=O)Nc1cccc(-c2nn3ccccc3c2-c2ccnc(Nc3cccc(F)c3)n2)c1 [UNC10225310A]	8
Cc1ccc(NC(=O)Nc2cccc(C(F)(F)F)c2)cc1 [UNC10225187A]	0

Target: ERN1 (Homo sapiens, UniProt O75460)
Assay: KINOMEscan competition binding
Details: read-out: %Inh ERN1

Chain of ERN1 (O75460 19-977): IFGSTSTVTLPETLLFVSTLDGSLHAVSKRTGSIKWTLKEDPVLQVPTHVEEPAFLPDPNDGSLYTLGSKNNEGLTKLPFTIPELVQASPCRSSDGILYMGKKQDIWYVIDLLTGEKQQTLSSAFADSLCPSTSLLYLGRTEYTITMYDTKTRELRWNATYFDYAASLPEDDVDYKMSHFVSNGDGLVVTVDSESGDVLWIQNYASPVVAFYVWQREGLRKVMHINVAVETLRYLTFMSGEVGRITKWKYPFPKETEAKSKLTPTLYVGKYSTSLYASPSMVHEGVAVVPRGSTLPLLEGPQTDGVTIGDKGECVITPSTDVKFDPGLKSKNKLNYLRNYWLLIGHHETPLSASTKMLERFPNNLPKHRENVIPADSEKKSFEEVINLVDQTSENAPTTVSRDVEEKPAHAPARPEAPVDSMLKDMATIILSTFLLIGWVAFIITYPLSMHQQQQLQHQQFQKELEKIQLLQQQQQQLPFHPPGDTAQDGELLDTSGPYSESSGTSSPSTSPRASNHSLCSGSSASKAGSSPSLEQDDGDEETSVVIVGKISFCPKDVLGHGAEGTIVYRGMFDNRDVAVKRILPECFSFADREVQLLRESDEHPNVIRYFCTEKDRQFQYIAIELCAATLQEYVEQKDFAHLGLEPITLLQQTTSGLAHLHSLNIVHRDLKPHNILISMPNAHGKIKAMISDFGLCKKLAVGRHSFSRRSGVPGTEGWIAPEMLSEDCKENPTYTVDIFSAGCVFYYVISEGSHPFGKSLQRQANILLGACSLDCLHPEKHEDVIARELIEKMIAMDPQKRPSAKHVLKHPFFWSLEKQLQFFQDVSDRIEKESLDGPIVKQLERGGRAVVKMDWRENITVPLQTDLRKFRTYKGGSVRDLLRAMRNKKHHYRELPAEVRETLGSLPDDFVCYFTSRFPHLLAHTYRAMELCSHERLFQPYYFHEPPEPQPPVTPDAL

SMILES	inhibition at 1 µM [%]
O=c1cc(N2CCOCC2)nc2n(Cc3cccc(Cl)c3Cl)c(C3CC3)nn12 [UNC10225469A]	0
Cn1cc(-c2cnc(N)c3c(-c4ccc5c(c4)CCN5C(=O)Cc4ccccc4)csc23)cn1 [UNC10225012A]	28
CS(=O)(=O)Cc1ccc(Nc2nccc(-c3c(-c4cccc(NC(=O)C5CCCCC5)c4)nn4ncccc34)n2)cc1 [UNC10225159A]	33
COc1cccc(OC)c1C(=O)Nc1cccc(-c2nn3ccccc3c2-c2ccnc(Nc3cccc(F)c3)n2)c1 [UNC10225310A]	10
Cc1ccc(NC(=O)Nc2cccc(C(F)(F)F)c2)cc1 [UNC10225187A]	0

Target: CSNK1A1 (Homo sapiens, UniProt P48729)
Assay: KINOMEscan competition binding
Details: read-out: %Inh CSNK1A1

Chain of CSNK1A1 (P48729 whole entry): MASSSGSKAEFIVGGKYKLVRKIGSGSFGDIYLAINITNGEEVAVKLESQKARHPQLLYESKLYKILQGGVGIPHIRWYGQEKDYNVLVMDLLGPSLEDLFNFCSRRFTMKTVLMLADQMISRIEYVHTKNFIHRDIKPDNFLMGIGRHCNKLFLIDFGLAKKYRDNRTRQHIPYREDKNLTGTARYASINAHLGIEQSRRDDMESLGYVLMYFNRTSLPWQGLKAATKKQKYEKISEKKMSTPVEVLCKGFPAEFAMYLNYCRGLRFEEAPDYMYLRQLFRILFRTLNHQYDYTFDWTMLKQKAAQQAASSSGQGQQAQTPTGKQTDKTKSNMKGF

SMILES	inhibition at 1 µM [%]
O=c1cc(N2CCOCC2)nc2n(Cc3cccc(Cl)c3Cl)c(C3CC3)nn12 [UNC10225469A]	0
Cn1cc(-c2cnc(N)c3c(-c4ccc5c(c4)CCN5C(=O)Cc4ccccc4)csc23)cn1 [UNC10225012A]	21
CS(=O)(=O)Cc1ccc(Nc2nccc(-c3c(-c4cccc(NC(=O)C5CCCCC5)c4)nn4ncccc34)n2)cc1 [UNC10225159A]	7
COc1cccc(OC)c1C(=O)Nc1cccc(-c2nn3ccccc3c2-c2ccnc(Nc3cccc(F)c3)n2)c1 [UNC10225310A]	25
Cc1ccc(NC(=O)Nc2cccc(C(F)(F)F)c2)cc1 [UNC10225187A]	0

Target: CAMKK2 (Homo sapiens, UniProt Q96RR4)
Assay: KINOMEscan competition binding
Details: read-out: %Inh CAMKK2

Chain of CAMKK2 (Q96RR4 whole entry): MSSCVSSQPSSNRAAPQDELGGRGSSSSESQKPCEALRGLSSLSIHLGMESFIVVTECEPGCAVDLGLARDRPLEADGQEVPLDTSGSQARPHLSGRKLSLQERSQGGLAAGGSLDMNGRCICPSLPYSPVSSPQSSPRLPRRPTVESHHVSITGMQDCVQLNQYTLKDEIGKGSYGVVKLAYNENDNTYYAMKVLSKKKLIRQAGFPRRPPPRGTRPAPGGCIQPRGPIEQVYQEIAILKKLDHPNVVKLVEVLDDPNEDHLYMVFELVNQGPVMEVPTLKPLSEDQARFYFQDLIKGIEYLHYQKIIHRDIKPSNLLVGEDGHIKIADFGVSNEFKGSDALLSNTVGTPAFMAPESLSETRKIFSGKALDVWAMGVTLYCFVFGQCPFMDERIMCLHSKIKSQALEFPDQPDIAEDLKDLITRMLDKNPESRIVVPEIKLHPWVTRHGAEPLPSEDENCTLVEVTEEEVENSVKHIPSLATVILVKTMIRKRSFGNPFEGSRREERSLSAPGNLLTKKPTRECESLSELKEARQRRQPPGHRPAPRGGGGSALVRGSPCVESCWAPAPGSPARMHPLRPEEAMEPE

SMILES	inhibition at 1 µM [%]
O=c1cc(N2CCOCC2)nc2n(Cc3cccc(Cl)c3Cl)c(C3CC3)nn12 [UNC10225469A]	8
Cn1cc(-c2cnc(N)c3c(-c4ccc5c(c4)CCN5C(=O)Cc4ccccc4)csc23)cn1 [UNC10225012A]	19
CS(=O)(=O)Cc1ccc(Nc2nccc(-c3c(-c4cccc(NC(=O)C5CCCCC5)c4)nn4ncccc34)n2)cc1 [UNC10225159A]	0
COc1cccc(OC)c1C(=O)Nc1cccc(-c2nn3ccccc3c2-c2ccnc(Nc3cccc(F)c3)n2)c1 [UNC10225310A]	0
Cc1ccc(NC(=O)Nc2cccc(C(F)(F)F)c2)cc1 [UNC10225187A]	19

Target: T3, CDC2L2 (Homo sapiens, UniProt Q9UQ88)
T3 sequence (Q9UQ88 1-783): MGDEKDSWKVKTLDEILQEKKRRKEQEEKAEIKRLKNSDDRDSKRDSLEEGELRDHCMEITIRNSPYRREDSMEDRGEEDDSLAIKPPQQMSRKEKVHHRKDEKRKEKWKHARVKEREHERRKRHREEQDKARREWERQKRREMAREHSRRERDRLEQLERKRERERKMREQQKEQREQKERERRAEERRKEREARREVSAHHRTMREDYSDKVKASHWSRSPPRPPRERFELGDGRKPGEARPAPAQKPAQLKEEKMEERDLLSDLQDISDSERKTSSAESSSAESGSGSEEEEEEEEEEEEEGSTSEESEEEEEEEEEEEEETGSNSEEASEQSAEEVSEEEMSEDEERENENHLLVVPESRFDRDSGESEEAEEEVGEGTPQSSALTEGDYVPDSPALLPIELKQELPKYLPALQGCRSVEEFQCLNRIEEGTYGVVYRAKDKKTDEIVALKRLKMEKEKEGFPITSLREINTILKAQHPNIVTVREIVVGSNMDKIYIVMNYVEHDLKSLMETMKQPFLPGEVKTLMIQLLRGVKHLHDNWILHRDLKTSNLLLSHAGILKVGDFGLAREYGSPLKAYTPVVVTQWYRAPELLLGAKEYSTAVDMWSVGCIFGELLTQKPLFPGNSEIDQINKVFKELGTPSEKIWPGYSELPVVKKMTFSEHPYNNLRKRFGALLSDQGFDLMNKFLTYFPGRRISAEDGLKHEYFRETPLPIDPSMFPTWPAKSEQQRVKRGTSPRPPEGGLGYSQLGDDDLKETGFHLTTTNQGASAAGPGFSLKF
Assay: KINOMEscan competition binding
Details: read-out: %Inh CDC2L2

SMILES	inhibition at 1 µM [%]
O=c1cc(N2CCOCC2)nc2n(Cc3cccc(Cl)c3Cl)c(C3CC3)nn12 [UNC10225469A]	0
Cn1cc(-c2cnc(N)c3c(-c4ccc5c(c4)CCN5C(=O)Cc4ccccc4)csc23)cn1 [UNC10225012A]	1
CS(=O)(=O)Cc1ccc(Nc2nccc(-c3c(-c4cccc(NC(=O)C5CCCCC5)c4)nn4ncccc34)n2)cc1 [UNC10225159A]	27
COc1cccc(OC)c1C(=O)Nc1cccc(-c2nn3ccccc3c2-c2ccnc(Nc3cccc(F)c3)n2)c1 [UNC10225310A]	0
Cc1ccc(NC(=O)Nc2cccc(C(F)(F)F)c2)cc1 [UNC10225187A]	0

Target: CAMK2D (Homo sapiens, UniProt Q13557)
Assay: KINOMEscan competition binding
Details: read-out: %Inh CAMK2D

Chain of CAMK2D (Q13557 whole entry): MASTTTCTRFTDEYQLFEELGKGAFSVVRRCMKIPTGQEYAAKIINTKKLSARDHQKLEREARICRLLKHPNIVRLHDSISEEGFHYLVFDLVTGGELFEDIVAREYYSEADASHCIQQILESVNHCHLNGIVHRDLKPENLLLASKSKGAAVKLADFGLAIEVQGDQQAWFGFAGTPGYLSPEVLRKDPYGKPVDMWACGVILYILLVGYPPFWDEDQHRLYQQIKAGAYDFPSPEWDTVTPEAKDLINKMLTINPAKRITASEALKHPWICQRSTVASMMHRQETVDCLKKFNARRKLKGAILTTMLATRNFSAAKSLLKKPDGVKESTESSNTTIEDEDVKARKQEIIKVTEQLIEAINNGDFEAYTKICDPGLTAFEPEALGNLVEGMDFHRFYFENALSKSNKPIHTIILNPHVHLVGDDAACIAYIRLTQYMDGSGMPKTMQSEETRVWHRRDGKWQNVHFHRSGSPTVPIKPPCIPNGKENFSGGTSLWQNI

SMILES	inhibition at 1 µM [%]
O=c1cc(N2CCOCC2)nc2n(Cc3cccc(Cl)c3Cl)c(C3CC3)nn12 [UNC10225469A]	18
Cn1cc(-c2cnc(N)c3c(-c4ccc5c(c4)CCN5C(=O)Cc4ccccc4)csc23)cn1 [UNC10225012A]	0
CS(=O)(=O)Cc1ccc(Nc2nccc(-c3c(-c4cccc(NC(=O)C5CCCCC5)c4)nn4ncccc34)n2)cc1 [UNC10225159A]	0
COc1cccc(OC)c1C(=O)Nc1cccc(-c2nn3ccccc3c2-c2ccnc(Nc3cccc(F)c3)n2)c1 [UNC10225310A]	0
Cc1ccc(NC(=O)Nc2cccc(C(F)(F)F)c2)cc1 [UNC10225187A]	8
